Test results reported in patent US7148236B2, “Modulators of acetylcholine receptors” (Merck & Co., Inc., priority 2002, dated 2006).

melting point	SMILES
178.5 to 181.6 °C	CN1[C@@H]2CC[C@H]1C[C@H](Sc1ccc3[nH]c(=O)[nH]c3c1)C2
> 260 °C	CN1[C@@H]2CC[C@H]1C[C@H](Sc1ccc3[nH]c(=O)[nH]c(=O)c3c1)C2
131.4 to 133.9 °C	CCCn1c(=S)[nH]c2ccc(S[C@@H]3C[C@H]4CC[C@@H](C3)N4C)c(Cl)c21
228.9 to 230.9 °C	CC(C)n1c(=S)[nH]c2ccc(S[C@@H]3C[C@H]4CC[C@@H](C3)N4C)c(Cl)c21
> 260 °C	CN1[C@@H]2CC[C@H]1C[C@H](Sc1ccc3[nH]c(=O)n(C)c3c1Cl)C2.Cl
206.4 to 207.2 °C	CN1[C@@H]2CC[C@H]1C[C@H](Sc1cc3c(cc1Cl)[nH]c(=O)n3C)C2
